This is an account of results in patent US20100004333A1, “COMPOSITIONS AND METHODS FOR TREATING CARDIOVASCULAR DISORDERS” (priority 2004, published 2010).

Experiment [1] has as its system New Zealand White rabbits. Nature of the experiment: Rabbit aortic balloon-injury model: intimal hyperplasia. The experiment is classed as in vivo. To be noted: 9 weeks, FIG. 21; for Protection against balloon injury-induced intimal hyperplasia: 0.02% wt/wt in chow, ABI at end of week three. The procedure: Rabbit aortic balloon-injury model. Four groups of male New Zealand White rabbits (1.8-2.2 kg, Merunga Farm, Coffs Harbour, Australia), matched for body weight and baseline plasma cholesterol, were fed 100 g per day of normal chow±1% probucol, 0.02% DTBP, or 0.02% BP (wt/wt) for up to nine weeks. Aortic balloon-injury (ABI) was carried out at the end of week three, resulting in complete endothelial denudation. Harvesting of aortas was done after a further 6 weeks (n=6 per group). Aortic lesion assessment was carried out at the 3rd pair of lumber arteries in NZW rabbits as described in Circulation 2003, 107:2031-2036. Statistics. Data are expressed as mean±SEM. One-way ANOVA and the student-Newman-Keul's test were used to evaluate differences between groups, with P<0.05 considered significant.
Materials and methods were as described in Examples 6 and 7, with the following addition. DTBP-s and STBP were synthesized as described in Example 10. A total of 48 New Zealand White rabbits (1.8-2.2 kg) were used for this example. Rabbits were fed normal chow (100 g/day) without (Ctrl, n=12) or with 0.02% DTBP (wt/wt, n=6), 0.02% STBP (wt/wt, n=7), 0.02% DTBP-s (wt/wt, n=11) or 0.1% DTBP-s (wt/wt, n=7) for 9 weeks. Aortic balloon-injury was carried out at the end of week three.

In a further experiment the test system is Heme oxygenase-1 mRNA. In words: HO-1 mRNA by real time RT-PCR in cultured rabbit aortic smooth muscle cells. The experiment is classed as cell-based. Conditions: α-tocopherol 50 μM, 24 hours; FIG. 20A. The method, then: (§1) Materials and methods were principally as described in Examples 6 and 7. Vitamin E (α-tocopherol for cellular studies, α-tocopheryl acetate for in vivo studies) was obtained from Sigma (St. Louis, Mo.). Heme oxygenase-1 mRNA was assessed by real time RT-PCR in rabbit aortic smooth muscle cells cultured for 24 hours in the presence of vehicle (control), probucol (50 μM) or α-tocopherol (50 μM) as described in (Circulation 2004; 110:1855-1860). Re-endothelialization was assessed by Evans blue staining (Circulation 2003; 107:2031-2036) 3 weeks after injury. Intima-to-media ratio of vessels from control rabbits and animals treated with probucol or α-tocopheryl acetate (n=6 per group) was also determined 3 weeks after aortic balloon injury, using 5 serial sections per aortic segment, 100 μm apart.

Another experiment deals with rabbits. Nature of the experiment: Rabbit aortic balloon injury, 3 weeks: re-endothelialization (Evans blue) and intima-to-media ratio, vitamin E. Type of experiment: in vivo. To be noted: α-tocopheryl acetate. The procedure: as §1

`CC(C)(C)c1cc(SSc2cc(C(C)(C)C)c(OC(=O)CCC(=O)O)c(C(C)(C)C)c2)cc(C(C)(C)C)c1O` [DTBP-s, 4-(2,6-di-t-butyl-4-((3,5-di-t-butyl-4-hydroxyphenyl)disulfanyl)phenoxy)-4-oxobutanoic acid]: the “Protection against balloon injury-induced intimal hyperplasia” value in experiment [1] was “significant protection, albeit less effectively”. Besides, in experiment [1] (0.1% wt/wt DTBP-s, P<0.05 versus 0.02% DTBP-s), the “Protection against intimal hyperplasia: 0.02% DTBP-s compared with 0.1% DTBP-s” value was “less effectively as that seen with STBP (0.02%, to wt/wt) and DTBP-s (0.1%, wt/wt)”.
Consider `CC(C)(C)c1cc(S[Se]c2cc(C(C)(C)C)c(O)c(C(C)(C)C)c2)cc(C(C)(C)C)c1O` [STBP, 2,6-di-t-butyl-4-(3,5-di-t-butyl-4-hydroxyphenylselanylthio)phenol], for which the “Protection against balloon injury-induced intimal hyperplasia” value in experiment [1] is on record as “protected to a comparable extent”.
Take `Cc1c(C)c2c(c(C)c1O)CC[C@@](C)(CCC[C@H](C)CCC[C@H](C)CCCC(C)C)O2` [vitamin E, α-tocopherol]: in the experiment with Heme oxygenase-1 mRNA, the “Induction of HO-1 (mRNA) in vascular smooth muscle cells” value is given as “failed to induce HO-1”. Moreover, in the experiment on rabbits (3 weeks after aortic balloon injury, FIG. 20C), the “Intimal hyperplasia (intima-to-media ratio)” value is recorded as “failed to inhibit intimal hyperplasia”. In addition, in the experiment with rabbits (3 weeks after injury, FIG. 20B), the “Re-endothelialization (Evans blue)” value is listed as “did not promote re-endothelialization”.
